Results: US6159994A, “Histamine H3 receptor ligands” (James Black Foundation, priority 1997, dated 2000)

How the values were obtained:
histamine H3 receptor = molecular target: T1, histamine H3 receptor (Cavia porcellus, UniProt Q9JI35); assay: Guinea pig ileal longitudinal muscle, myenteric plexus functional assay (antagonism of R-(α)-methylhistamine inhibition of electrically-stimulated contraction); format: cell-based; conditions: guinea pig ileum; antagonist affinity from rightward shift of R-(α)-methylhistamine E/[A] curves (Schild); typical variance ±0.15 log units; read-out: pKB (functional assay) - ileum (converted)
T1 construct: the longitudinal muscle layer and adhering myenteric plexus was teased away; from tissue; host or cells: guinea pig ileum longitudinal muscle with adhering myenteric plexus (intact tissue strips)
T1 sequence (Q9JI35 whole entry): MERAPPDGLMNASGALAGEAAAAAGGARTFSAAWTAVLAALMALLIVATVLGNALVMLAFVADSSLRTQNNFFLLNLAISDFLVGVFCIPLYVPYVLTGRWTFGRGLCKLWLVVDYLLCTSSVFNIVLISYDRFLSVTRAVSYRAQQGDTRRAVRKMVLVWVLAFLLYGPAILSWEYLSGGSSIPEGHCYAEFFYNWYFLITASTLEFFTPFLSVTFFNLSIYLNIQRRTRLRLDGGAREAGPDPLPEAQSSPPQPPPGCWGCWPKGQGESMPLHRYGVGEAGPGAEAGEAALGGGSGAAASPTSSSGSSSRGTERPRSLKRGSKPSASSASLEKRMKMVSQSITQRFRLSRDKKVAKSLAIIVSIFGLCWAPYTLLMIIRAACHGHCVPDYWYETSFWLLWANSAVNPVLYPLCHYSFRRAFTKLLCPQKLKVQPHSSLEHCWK
Protocol: The biological activity of the compounds of the examples was measured using the ileal longitudinal muscle, myenteric plexus assay described by Paton and Aboo Zar (J. Physiol. 1968, 194, 13-33). Male Dunkin-Hartley guinea pigs (250-300 g) were employed. Briefly, a 50 cm portion of ileum proximal to the caecum was removed, after discarding the terminal 20 cm. Ileal segments (3 cm) were cleaned by passing Krebs-Henseleit buffer containing 3 μM mepyramine gently through the ileum using a Pasteur pipette (size: 13.8 cm length, 0.65 cm diameter). To avoid unnecessary damage to the tissue, Krebs-Henseleit buffer was passed through the ileal segment, while it was lying horizontally on a petri dish. Therefore, the ileum was not over-distended and the buffer flowed through with ease. Each segment was then passed over a Pasteur pipette and the longitudinal muscle layer and adhering myenteric plexus was teased away using moist cotton wool, by stroking tangentially away from the mesenteric attachment. The tissues were suspended in 20 ml organ baths containing Krebs-Henseleit buffer at 37±1° C. and gassed with […]. The tissues were ligated to two parallel stainless steel wires, situated between two platinum electrodes (0.76 cm length, 0.06 cm diameter). All measurements were recorded isometrically (Grass FTO3 transducer). Following an initial loading tension of 1 g, the tissues were stimulated with electrical pulses at a frequency of 0.1 lHz and a pulse duration of 0.5 msec, as described by Kosterlitz & Watt (Br. J. Pharmacol. 1968, 266-276). Initially, the tissues were stimulated at supramaximal (1.3 fold times maximal) voltage for a period of 30 min and then the tissues were washed and re-stimulated.A "sighter dose" of the selective histamine H3 -receptor agonist, R-(α)-methylhistamine (0.3 μM) (Arrang el al. Nature, 1987, 117-123), was administered. Upon generation of response, the "sighter dose" was removed from the tissues by "washout" (6 washes over 60 min) and during this period the electrical stimulation was switched off. The tissues were then re-stimulated and allowed to stabilise prior to the addition of drug treatments, which were allocated on a randomised block basis to the organ baths. Following the incubation period, a single cumulative E/[A] curve was obtained. The experimental E/[A] curve data was expressed as the percentage inhibition of the peak height of electrically-stimulated contraction. Antagonist affinity values were calculated from the degree of rightward shift of the R-(α)-methylhistamine E/[A] curves using Schild's methods (Arunlakshana & Schild Br. J. Pharmacol, 1959, 48-58). Typical variance in this assay is ±0.15 log units.

[1] = molecular target: T2, Histamine H3 receptor (guinea pig ileum longitudinal muscle myenteric plexus membranes) (Cavia porcellus, UniProt Q9JI35); assay: Histamine H3 radioligand binding assay - guinea pig ileum; conditions: [3H]-R-α-methylhistamine (50 μl; 3 nM), 165 min, 21±3° C., pH7.4, typical variance ±0.12 log units, read-out: pKI (binding assay) - ileum (converted)
T2 construct: Guinea pig ileum longitudinal muscle myenteric plexus membranes; from tissue; host or cells: guinea pig ileum longitudinal muscle myenteric plexus membranes
T2 sequence (Q9JI35 whole entry): as above
Protocol: Histamine H3 radioligand binding assay--guinea pig ileum
Male Dunkin Hartley guinea pigs (200-300 g) were used. The small intestine was rapidly removed (cut ^- 5 cm from caecum and 5 cm from stomach) and placed in ice-cold 20 mM Hepes-NaOH buffer (pH7.4 at 21±3° C.). The tissue was cut into ^- 10 cm segments, flushed through with ice-cold 20 mM Hepes-NaOH buffer and placed in a beaker containing fresh buffer at 4° C. 10 cm segments of ileum were threaded onto a glass pipette and the longitudinal muscle myenteric plexus was peeled away from the circular muscle using damp cotton-wool. Longitudinal muscle myenteric plexus was immediately placed in ice-cold Viaspan® solution (^~ 100 ml for tissue from 3 guinea pigs) and placed in the refrigerator for 24 hours.
Pre-soaked tissue was weighed and minced with scissors. The tissue was then homogenised in Viaspan® using a polytron (Kinematica AG; PT-DA 3020/2TS, 3×^- 1-2s). 50 ml of 500 mM Tris HCl (pH6.9 at 21±3° C.) was added to the tissue and the mixture centrifuged at 39,800×g for 12 min at 4° C. The supernatant was discarded and rehomogenised in 100 ml ice-cold 20 mM Hepes-NaOH buffer (pH7.4 at 21±3° C.) using a teflon-in-glass homogeniser (setting 10; 3×). The homogenate was recentrifuged at 39,800×g and the pellet resuspended in 20 mM Hepes-NaOH buffer (pH7.4 at 21±3° C.), to a tissue concentration of 50 mg.ml^-1, using a polytron (Brinkman, PT10, 3×^~1 s).
Guinea pig ileum longitudinal muscle myenteric plexus membranes (400 μl) were incubated for 165 min at 21±3° C. in a final volume of 500 μl with 20 mM Hepes-NaOH buffer containing [^3 H]-R-α-methylhistamine (50 μl; 3 nM) and competing compound. Total and non-specific binding of [^3 H]-R-α-methylhistamine were defined using 50 μl of buffer and 50 μl of 10 μM thioperamide, respectively. The assay was terminated by rapid filtration through Whatman GF/B filters, presoaked (2 hr) in 0.1% polyethyleneimine, using a Brandell Cell Harvester. The filters were washed (3×3 ml) with ice-cold 50 mM Tris-HCl (pH6.9 at 21±3° C.), transferred into scintillation vials, 5 ml liquid scintillation cocktail was added and after 4 hours the bound radioactivity was determined by counting (4 min) in a Beckman liquid scintillation counter.
(§1) Data are analysed using GraphPad prism and the general equation for a competition curve with variable Hill slope (nH). [formula] where
(§2) X is the log concentration of competing compound,
(§3) Y is the binding obtained at each concentration of X,
(§4) pIC50 is the […] required to compete for half of the specific binding.
The IC50 is converted to the KI using the Cheng Prusoff equation, […]
KD is the equilibrium dissociation constant for the radioligand determined by saturation experiments. […]

[2] = molecular target: T3, Histamine H3 receptor (guinea pig cortex membranes) (Cavia porcellus, UniProt Q9JI35); assay: Histamine H3 radioligand binding assay - guinea pig cortex; conditions: [3H]-R-α-methylhistamine 0.1 nM final, typical variance ±0.12 log units, read-out: pKI (binding assay) - cortex (converted)
T3 construct: The cortex was dissected, weighed and homogenised; from tissue; host or cells: guinea pig cerebral cortex membranes
T3 sequence (Q9JI35 whole entry): as above
Protocol: as §1, §2, §3, §4
The IC50 is converted to the KI using the Cheng Prusoff equation,
IC50 is the concentration of competitor required to compete for half the specific binding,
L is the radioligand concentration used,
KD is the equilibrium dissociation constant for the radioligand determined by saturation experiments.
Histamine H3 radioligand binding assay--guinea pig cortex
Male Dunkin Hartley guinea pigs (200-300 g) were used. The whole brain was removed and immediately placed in ice-cold 20 mM Hepes-NaOH buffer (pH7.4 at 21±3° C.). The cortex was dissected, weighed and homogenised in ice-cold 20 mM Hepes-NaOH buffer (pH7.4 at 21±3° C.) (50 ml/guinea-pig cortex) using a polytron (Kinematica AG; PT-DA 3020/2TS, 3×3s). The homogenate was centrifuged at 100×g for 5 min and the supernatants pooled and stored at 4° C. The pellets were rehomogenised in fresh ice-cold buffer (80 ml) and recentrifuged (100×g for 5 min). The supernatants were pooled and pellets rehomogenised and recentrifuged (100×g for 5 min). All supernatants were pooled and centrifuged at 39,800×g for 12 min at 4° C. The final pellet was resuspended in 20 mM Hepes-NaOH buffer (pH7.4 at 21±3° C.) to a tissue concentration of 7.5 mg.ml^-1, using a teflon-in-glass homogeniser.
These were essentially identical to those used for the guinea pig ileum myenteric plexus assay described above, except that the final assay concentration of [^3 H]-R-α-methylhistamine was 0.1 nM. Typical variance in this assay is ±0.12 log units.

| Kb (histamine H3 receptor) | Ki [1] | Ki [2] | Structure (SMILES) |
| --- | --- | --- | --- |
| 240 nM |  | 4170 nM | O=S1(=O)NCCN1CCc1c[nH]cn1 [Example 2, 2-(2-(4-imidazolyl)ethyl)-1,2,5-thiadiazolidine-1,1-dioxide] |
| 355 nM | 13.5 nM | 2.57 nM | O=S1(=O)NCCN1CCCc1c[nH]cn1 [Example 3, 2-(3-(4-imidazolyl)propyl)-1,2,5-thiadiazolidine-1,1-dioxide] |
| 1780 nM |  | 115 nM | O=C1CNS(=O)(=O)N1CCCc1c[nH]cn1 [Example 4, 2-(3-(4-imidazolyl)propyl)-1,2,5-thiadiazolidin-3-one-1,1-dioxide] |
| 891 nM | 1660 nM | 43.7 nM | C[C@H]1CN(CCc2c[nH]cn2)[S+]([O-])N1 (stereo partly drawn) [Example 6, 2-(4-imidazolyl)ethyl-4(S)-methyl-1,2,5-thiadiazolidine-1-oxide] |
| 2400 nM |  | 501 nM | O=C1CNS(=O)(=O)N1CCCCc1c[nH]cn1 [Example 8, 2-(4-(4-imidazolyl)butyl)-1,2,5-thiadiazolidin-3-one-1,1-dioxide] |

Continued, compound first:

| Structure (SMILES) | Kb (histamine H3 receptor) | Ki [1] | Ki [2] |
| --- | --- | --- | --- |
| O=S1(=O)NC(Cc2ccc(Cl)cc2)CN1CCCCCc1c[nH]cn1 (centres unmarked) [Example 1, 4-(4-chlorophenyl)methyl-2-(5-(4-imidazolyl)pentyl)-1,2,5-thiadiazolidine-1,1-dioxide] | 123 nM | 42.7 nM | 46.8 nM |
| O=S1(=O)N(CCCc2c[nH]cn2)CCN1Cc1ccccc1 [Example 5, 5-benzyl-2-(3-(4-imidazolyl)propyl)-1,2,5-thiadiazolidine-1,1-dioxide] | > 10000 nM | 2950 nM | 6310 nM |
| O=C1C(Cc2ccc(Cl)cc2)NS(=O)(=O)N1CCCCc1c[nH]cn1 (centres unmarked) [Example 7, 2-(4-(4-imidazolyl)butyl)-4-(4-chlorophenyl)methyl-1,2,5-thiadiazolidin-3-one-1,1-dioxide] | 44.7 nM |  | 0.513 nM |
